Data: patent publication US10231986B2, “Amino acid phosphoramidate pronucleotides of 2′-cyano, azido and amino nucleosides for the treatment of HCV” (Centre National De La Recherche Scientifique, priority 2013, dated 2019)
Like-named read-outs stand apart in the source and are kept apart here.

Columns and labels:
[1] = biological target: T1, wild-type HCV genotype 1b NS5B protein (recombinant HCV polymerase) (Hepatitis C virus genotype 1b, UniProt Q9WMX2); assay: HCV polymerase enzyme assay, wild-type; type: biochemical
T1 construct: approximately 65 kDa HCV genotype 1b NS5B protein were used to generate recombinant HCV polymerases; made in house
Excerpt: (§1) Test compounds in the form of nucleoside triphosphates were examined for inhibitory activity against purified HCV polymerase in a standard assay. Bacterial expression constructs encoding the approximately 65 kDa HCV genotype 1b NS5B protein were used to generate recombinant HCV polymerases (with a deletion of the 21 carboxy terminal amino acids). Both the wild-type genotype 1b protein and protein containing the S282T mutation were expressed and purified for use in the enzymatic activity assay.
(§2) The enzymatic activity assay measured the inhibitory effect of increasing concentrations of test compound on the incorporation of α-[^33P]-labeled nucleotide into trichloroacetic acid-precipitable material. Recombinant polymerase and synthetic RNA template were combined in reaction buffer containing ribonucleoside triphosphates, α-[^33P]-labeled nucleotide and eight concentrations of test compound in three-fold dilutions. Reactions were incubated for two hours at 30° C.
(§3) Reactions were terminated by the addition of ice-cold trichloroacetic acid and sodium pyrophosphate to promote precipitation of newly-synthesized ribonucleic acid. Precipitable material from the reactions was collected by filtration onto 96-well filter plates, washed extensively with water, and quantified by liquid scintillation.
(§4) The inhibitory activity of test compounds was determined by fitting results to dose-response curves using XLfit software.

[2] = system: HCV genotype 1b replicon in Huh-7-derived cell line (Zluc); assay: HCV replicon assay (luciferase reporter); type: cell-based
Protocol: Huh-7-derived cell line (Zluc) that harbors an HCV genotype 1b replicon and a luciferase reporter gene was grown in Dulbecco's Modified Eagle Medium (DMEM) supplemented with 10% fetal bovine serum, 2 mM GlutaMAX, 1% MEM nonessential amino acids, 100 IU/mL penicillin, 100 μg/mL streptomycin, and 0.5 mg/mL Geneticin® (G418). For dose response testing the cells were seeded in 96-well plates at 7.5×10^3 cells per well in a volume of 50 μL, and incubated at 37° C./5% CO2. Drug solutions were made up freshly in Huh-7 media as 2× stocks. Ten additional 5-fold dilutions were prepared from these stocks in DMEM without G418. At least three hours after Zluc cells were seeded, drug treatment was initiated by adding 50 μL of drug dilutions to the plates in duplicate. Final concentrations of drug ranged from 100 μM to […]. Cells were then incubated at 37° C./5% CO2. Alternatively, compounds were tested at two concentrations (1 μM and 10 μM). […] For this, media was removed from the plates via gentle tapping. Fifty microliters of ONE-glo luciferase assay reagent was added to each well. The plates were shaken gently for 3 min at room temperature and luminescence was measured on a Victor^3 V 1420 multilabel counter (Perkin Elmer) with a 1 second read time using a 700 nm cut-off filter. The EC50 values were calculated from dose response curves from the resulting best-fit equations determined by Microsoft Excel and XLfit 4.1 software. When screening at two fixed concentrations, the results were expressed as % inhibition at 1 μM and 10 μM.

[3] = Cytotoxicity evaluation, CellTiter-Blue Cell Viability Assay; details: human
[4] = biological target: T2, HCV genotype 1b NS5B protein containing the S282T mutation (Hepatitis C virus genotype 1b, UniProt Q9WMX2, S2701T); assay: HCV polymerase enzyme assay, S282T mutant; type: biochemical
T2 construct: approximately 65 kDa HCV genotype 1b NS5B protein were used to generate recombinant HCV polymerases; made in house
Excerpt: as §1, §2, §3, §4

[5] = system: Zluc cells; assay: Cytotoxicity evaluation, CellTiter-Blue Cell Viability Assay; details: read-out: HCV Replicon CC50; Zluc cells, CellTiter-Blue
[6] = Hepatitis C virus, 72 h, Zluc cells, genotype 1b replicon, 72 hours of incubation, read-out: HCV Replicon EC50
[7] = Zluc cells (HCV replicon cells)
[8] = Zluc cells, genotype 1b replicon, 72 hours of incubation, read-out: HCV Replicon EC50
[9] = Hepatitis C virus, 72 h, read-out: HCV Replicon EC50, Zluc cells, genotype 1b replicon, 72 hours of incubation

Structure (SMILES)	IC50 [1]	EC50 [2, 6]	CC50 at 72 h [3]	other results
C[C@@]1(N)[C@H](O)[C@@H](COP(=O)(O)OP(=O)(O)OP(=O)(O)O)O[C@H]1n1ccc(N)nc1=O [Compound 206]	1000 to 10000 nM	–	–	–
C[C@@]1(N)[C@H](O)[C@@H](CO)O[C@H]1n1ccc(=O)[nH]c1=O [Reference Compound 103, reference compound]	–	> 10 µM	–	CC50 at 72 h [3, 7]: > 50 µM
C[C@@]1(N=[N+]=[N-])[C@H](O)[C@@H](COP(=O)(O)OP(=O)(O)OP(=O)(O)O)O[C@H]1n1cnc2c(N)ncnc21 [Compound 201]	250 to 1000 nM	–	–	IC50 [4]: > 10 µM
C[C@@]1(C#N)[C@H](O)[C@@H](COP(=O)(O)OP(=O)(O)OP(=O)(O)O)O[C@H]1n1ccc(N)nc1=O [Compound 205]	250 to 1000 nM	–	–	–
Nc1ccn([C@@H]2O[C@H](COP(=O)(O)OP(=O)(O)OP(=O)(O)O)[C@@H](O)[C@H]2N)c(=O)n1 [Compound 207]	250 to 1000 nM	–	–	–
CC(C)OC(=O)[C@H](C)NP(=O)(OC[C@H]1O[C@@H](n2ccc(=O)[nH]c2=O)[C@H](N)[C@@H]1O)Oc1ccccc1 (single isomer, unassigned) [Compound 526 Diastereomer 2]	–	–	–	EC50 [2, 8]: > 10 µM; CC50 [5]: > 50 µM
CC(C)OC(=O)[C@H](C)NP(=O)(OC[C@H]1O[C@@H](n2ccc(N)nc2=O)[C@H](N=[N+]=[N-])[C@@H]1O)Oc1ccccc1 (mixture of isomers) [Compound 530 Diastereomer Mix]	–	–	> 50 µM	EC50 [2, 9]: > 10 µM
C[C@@]1(N=[N+]=[N-])[C@H](O)[C@@H](CO)O[C@H]1n1ccc(=O)[nH]c1=O [Reference Compound 102, reference compound]	–	> 10 µM	–	CC50 at 72 h [3, 7]: > 50 µM
C[C@@]1(N)[C@H](O)[C@@H](COP(=O)(O)OP(=O)(O)OP(=O)(O)O)O[C@H]1n1ccc(=O)[nH]c1=O [Compound 203]	1000 to 10000 nM	–	–	IC50 [4]: > 10 µM
CC1(C#N)C(O)C(CO)OC1n1ccc(N)nc1=O (stereo not shown) [Reference Compound A9b, reference compound]	–	–	–	EC50 [2, 8]: 1 to 10 µM; CC50 [5]: > 50 µM
CC(C)OC(=O)[C@@H](C)N[P@@](=O)(OC[C@H]1O[C@@H](n2ccc(N)nc2=O)[C@](C)(C#N)[C@@H]1O)Oc1ccccc1 [Compound 1a]	–	> 10 µM	> 50 µM	–
C[C@@]1(C#N)[C@H](O)[C@@H](COP(=O)(O)OP(=O)(O)OP(=O)(O)O)O[C@H]1n1ccc(=O)[nH]c1=O [Compound 204]	< 250 nM	–	–	IC50 [4]: 1 to 10 µM
CC(C)OC(=O)[C@H](C)NP(=O)(OC[C@H]1O[C@@H](n2ccc(=O)[nH]c2=O)[C@](C)(N)[C@@H]1O)Oc1ccccc1 (single isomer, unassigned) [Reference Compound A19 Diastereomer 1, reference compound]	–	–	> 50 µM	EC50 [2, 8]: > 10 µM
C[C@@]1(N)[C@H](O)[C@@H](COP(=O)(O)OP(=O)(O)OP(=O)(O)O)O[C@H]1n1cnc2c(N)ncnc21 [Compound 208]	1000 to 10000 nM	–	–	IC50 [4]: > 10 µM
CC(C)OC(=O)[C@H](C)NP(=O)(OC[C@H]1O[C@@H](n2ccc(=O)[nH]c2=O)[C@](C)(N)[C@@H]1O)Oc1ccccc1 (single isomer, unassigned) [Reference Compound A19 Diastereomer 2, reference compound]	–	–	–	EC50 [2, 8]: 1 to 10 µM; CC50 [5]: > 50 µM
CC(C)OC(=O)[C@H](C)NP(=O)(OC[C@H]1O[C@@H](n2ccc(N)nc2=O)[C@H](N=[N+]=[N-])[C@@H]1O)Oc1ccccc1 (single isomer, unassigned) [Compound 530 Diastereomer 1]	–	–	> 50 µM	EC50 [2, 9]: > 10 µM
CC(C)OC(=O)[C@H](C)NP(=O)(OC[C@H]1O[C@@H](n2ccc(=O)[nH]c2=O)[C@H](N=[N+]=[N-])[C@@H]1O)Oc1ccccc1 (single isomer, unassigned) [Compound 528 Diastereomer 1]	–	> 10 µM	> 50 µM	–
CC(C)OC(=O)[C@H](C)NP(=O)(OC[C@H]1O[C@@H](n2ccc(=O)[nH]c2=O)[C@H](N=[N+]=[N-])[C@@H]1O)Oc1ccccc1 (single isomer, unassigned) [Compound 528 Diastereomer 2]	–	–	–	EC50 [2, 8]: > 10 µM; CC50 [5]: > 50 µM
C[C@]1(N=[N+]=[N-])C(n2cnc3c(N)ncnc32)O[C@H](CO)[C@H]1O (stereo partly shown) [Reference Compound 101, reference compound]	–	> 10 µM	–	CC50 at 72 h [3, 7]: > 50 µM
CC(C)OC(=O)[C@H](C)NP(=O)(OC[C@H]1O[C@@H](n2ccc(=O)[nH]c2=O)[C@](C)(N=[N+]=[N-])[C@@H]1O)Oc1ccccc1 (single isomer, unassigned) [Reference Compound A18 Diastereomer 1, reference compound]	–	> 10 µM	> 50 µM	–
CC(C)OC(=O)[C@H](C)NP(=O)(OC[C@H]1O[C@@H](n2ccc(=O)[nH]c2=O)[C@H](N)[C@@H]1O)Oc1ccccc1 (single isomer, unassigned) [Compound 526 Diastereomer 1]	–	> 10 µM	> 50 µM	–
CC(C)OC(=O)[C@H](C)NP(=O)(OC[C@H]1O[C@@H](n2ccc(N)nc2=O)[C@H](N)[C@@H]1O)Oc1ccccc1 (single isomer, unassigned) [Compound 531 Diastereomer 1]	–	–	> 50 µM	EC50 [2, 9]: > 10 µM
C[C@@]1(N=[N+]=[N-])[C@H](O)[C@@H](COP(=O)(O)OP(=O)(O)OP(=O)(O)O)O[C@H]1n1ccc(=O)[nH]c1=O [Compound 202]	250 to 1000 nM	–	–	IC50 [4]: > 10 µM
